According to patent US20240366553A1, “ASPARTIC ACID COPPER COMPLEX, AND USE THEREOF” (GUANGZHOU INSIGHTER BIOTECHNOLOGY CO., LTD., priority 2021, published 2024):
Where two headings read alike, the source gives them in different places.

Key:
[1] = system: Lingnan yellow-feathered, fast-growing, and large-sized broilers; settings: for Average feed consumption / Average weight gain / Feed-to-meat ratio / Survival rate (%) / Relative weight gain rate (%): broilers aged 1 to 21 days; for Relative weight gain rate (%): relative to control group; for Physical characteristics of the experimental chickens: experimental groups of compounds 1-7
Source text: (§1) Experimental animals: 900 one-day-old Lingnan yellow-feathered, fast-growing, and large-sized broilers; 150 weaned piglets;
(§2) Feeds: basal feed for chickens and basal feed for pigs that contain no antimicrobial drugs, copper sources and growth promoters;
(§3) Experimental samples: compound 1, compound 2, compound 3, compound 4, compound 5, compound 6, compound 7,
900 one-day-old Lingnan yellow-feathered, fast-growing, and large-sized broilers were randomly divided into 18 groups (50 broilers/group). […] The broilers had free access to food. The weight gain and feed conversion of the experimental chickens (aged from 1 to 21 days) in each experimental group were recorded.

[2] = system: weaned piglets; settings: for Average weight gain / Feed-to-meat ratio / Survival rate (%) / Total feed consumption / Total weight gain / Relative weight gain rate (%): weaned piglets, 30 days; for Total feed consumption / Total weight gain: 10 pigs; for Relative weight gain rate (%): control group = 100
Source text: as §1, §2, §3
150 weaned piglets were grouped according to Table 2 (10 piglets/group). […] The piglets had free access to food. The weight gain and feed conversion of the experimental pigs in each experimental group were recorded within 30 days after […] weaning.

[3] = system: black carp (subyearlings); assay: Use of aspartic acid copper complex in aquaculture feeds (black carp breeding experiment); format: in vivo; settings: 30 mg/kg in feed (as copper ions), 8 weeks
Method: Experimental fishes: The experimental fishes used were black carp (subyearlings), which were provided by the Dafeng fish nursery (Huizhou city, Guangdong province). Healthy and active fingerling black carps (uniform in size) were fed for 4 weeks in a big net cage (4×2×1.5 m^3) and then the formal breeding experiment was carried out. The experimental systems were small floating net cages (1.1×1.1×1.1 m^3 in size). Each small net cage was provided with an air-filling head, which allowed for continuous inflation of the cages for 24 h a day. The small net cages and the acclimatization net cage were all placed in a 3500 m^2 pond in the experimental field. […] During the trial, 480 black carps (fasted for 1 d) were randomly divided into 10 groups, with 4 replicates for each group and 12 fishes in each replicate. After weighing as a whole, the black carps were randomly placed into […] and fed with different experimental feeds.
Experimental feeds: The experimental feeds were formulated following the formula in Table 5. According to Table 6, different copper element supplements (calculated based on the copper ions) were added to the feeds in different experimental groups, respectively. The feed raw materials were subjected to ultrafine grinding and then granulated into floating expanded feeds (3 mm) using an expansion machine from Jiangsu Muyang Corporation. The demolding temperature was 130° C. 3% soybean oil was externally sprayed using an oil spraying device. The finished product was sealed and stored in a cool place for later use.
Experimental management: During the trial, the carps were manually fed in a restricted dose. The feeding dose was adjusted once a week, and the doses for all groups (based on the initial body weight) were completely consistent. The carps were fed twice a day (at 7:30 and 15:00). The experiment lasted for 8 weeks. During the trial, the water quality was regularly monitored, and throughout the breeding, the water temperature was kept at 26.88±3.08° C., DO>5.0 mg O L^−1, pH 7.8, ammonia nitrogen<0.50 mg NL^−1, and nitrite-nitrogen<0.05 mg N L^−1.
Parametric statistics: During the trial, the carps in each net cage were weighed as a whole one day after discontinuation of feeding, and the average weight gain (g) and feed-to-meat ratio were calculated. The calculation formulas are as follows:
Average weight gain (g)=Average final weight−Average initial weight; Feed-to-meat ratio=Food intake/Weight gain of fishes;

[4] = 50 mg/kg in feed (as copper ion)
[5] = 5 mg/kg in feed (as copper ion)
[6] = 100 mg/kg in feed (as copper ion)
[7] = 200 mg/kg in feed (as copper ion)
[8] = 300 mg/kg in feed (as copper ion)
[9] = group 1-30: 30 mg/kg in feed (as copper ion)
[10] = 8 mg/kg in feed (as copper ion)
[11] = group 1-200: 200 mg/kg in feed (as copper ion)
[12] = L-aspartic acid 105 mg/kg in feed, no copper source
[13] = L-aspartic acid group (105 mg/kg), versus control
[14] = L-aspartic acid 104 mg/kg in feed, no copper source

Compound: NC(CC(=O)[O-])C(=O)[O-].O.O.[Cu+2] (racemic) [Compound 7, [(Cu(II))(DL-Asp)(H2O)2]·(H2O)0.16]
- Average feed consumption [1, 4]: 921 g
- Average weight gain [1, 4]: 515 g
- Feed-to-meat ratio [1, 4]: 1.789
- Survival rate (%) [1, 4]: 100%
- Relative weight gain rate (%) [1, 4]: 108.6%
- Physical characteristics of the experimental chickens [1]: normal physical characteristics
- Average weight gain [2, 4]: 12.16 kg
- Feed-to-meat ratio [2, 4]: 2.198
- Survival rate (%) [2, 4]: 100%
- Total feed consumption [2, 4]: 267.33 kg
- Total weight gain [2, 4]: 121.6 kg
- Relative weight gain rate (%) [2, 4]: 111.6%
- Average weight gain [3]: 350 g
- Feed-to-meat ratio [3]: 1.429

Compound: N[C@@H](CC(=O)[O-])C(=O)[O-].O.O.[Cu+2] [Compound 1, [(Cu(II))(L-Asp)(H2O)2]]
- Average feed consumption [1, 5]: 916 g
- Average weight gain [1, 5]: 497 g
- Feed-to-meat ratio [1, 5]: 1.843
- Survival rate (%) [1, 5]: 100%
- Relative weight gain rate (%) [1, 5]: 104.9%
- Average feed consumption [1, 4]: 923 g
- Average weight gain [1, 4]: 518 g
- Feed-to-meat ratio [1, 4]: 1.782
- Survival rate (%) [1, 4]: 100%
- Relative weight gain rate (%) [1, 4]: 109.3%
- Average feed consumption [1, 6]: 970 g
- Average weight gain [1, 6]: 546 g
- Feed-to-meat ratio [1, 6]: 1.777
- Survival rate (%) [1, 6]: 100%
- Relative weight gain rate (%) [1, 6]: 115.2%
- Average feed consumption [1, 7]: 1004 g
- Average weight gain [1, 7]: 567 g
- Feed-to-meat ratio [1, 7]: 1.771
- Survival rate (%) [1, 7]: 100%
- Relative weight gain rate (%) [1, 7]: 119.6%
- Average feed consumption [1, 8]: 926 g
- Average weight gain [1, 8]: 526 g
- Feed-to-meat ratio [1, 8]: 1.760
- Survival rate (%) [1, 8]: 100%
- Relative weight gain rate (%) [1, 8]: 111.0%
- Dose effect in the experimental results (broilers) ([1]; addition amount of 50-100 mg/kg): exhibited a dose effect
- Physical characteristics of the experimental chickens [1]: normal physical characteristics
- Average feed consumption [1, 9]: 919 g
- Average weight gain [1, 9]: 511 g
- Feed-to-meat ratio [1, 9]: 1.798
- Survival rate (%) [1, 9]: 100%
- Relative weight gain rate (%) [1, 9]: 107.8%
- Average weight gain [2, 10]: 11.26 kg
- Feed-to-meat ratio [2, 10]: 2.268
- Survival rate (%) [2, 10]: 100%
- Total feed consumption [2, 10]: 255.34 kg
- Total weight gain [2, 10]: 112.6 kg
- Relative weight gain rate (%) [2, 10]: 103.30%
- Average weight gain [2, 4]: 12.12 kg
- Feed-to-meat ratio [2, 4]: 2.121
- Survival rate (%) [2, 4]: 100%
- Total feed consumption [2, 4]: 257.08 kg
- Total weight gain [2, 4]: 121.2 kg
- Relative weight gain rate (%) [2, 4]: 111.19%
- Average weight gain [2, 6]: 12.21 kg
- Feed-to-meat ratio [2, 6]: 2.112
- Survival rate (%) [2, 6]: 100%
- Total feed consumption [2, 6]: 257.86 kg
- Total weight gain [2, 6]: 122.1 kg
- Relative weight gain rate (%) [2, 6]: 112.02%
- Dose effect on improving the production performance of the experimental pigs ([2]; 8-200 mg/kg groups): exhibited a dose effect
- Growth-promoting effect and feed conversion rate versus high-level copper sulfate group ([2]; dose of 50 mg/kg, comparator copper sulfate 250 mg/kg): close to those achieved in the high-level copper sulfate group
- Average weight gain [2, 9]: 11.66 kg
- Feed-to-meat ratio [2, 9]: 2.205
- Survival rate (%) [2, 9]: 100%
- Total feed consumption [2, 9]: 257.09 kg
- Total weight gain [2, 9]: 116.6 kg
- Relative weight gain rate (%) [2, 9]: 106.97%
- Average weight gain [2, 11]: 12.34 kg
- Feed-to-meat ratio [2, 11]: 2.093
- Survival rate (%) [2, 11]: 100%
- Total feed consumption [2, 11]: 258.28 kg
- Total weight gain [2, 11]: 123.4 kg
- Relative weight gain rate (%) [2, 11]: 113.21%
- Improvement in the feed conversion of the experimental pigs compared with compound 4 ([2]; used at the same doses (50 mg/kg)): about 2 fold
- Average weight gain [3]: 357 g
- Feed-to-meat ratio [3]: 1.401

Compound: N[C@@H](CC(=O)O)C(=O)O [L-aspartic acid, reference compound]
- Average feed consumption [1, 12]: 899 g
- Average weight gain [1, 12]: 480 g
- Feed-to-meat ratio [1, 12]: 1.873
- Survival rate (%) [1, 12]: 100%
- Relative weight gain rate (%) [1, 12]: 101.3%
- Feed conversion decreased by [1, 13]: 0.32%
- Relative weight gain rate increased by [1, 13]: 4.2%
- Average weight gain [2, 14]: 11.04 kg
- Feed-to-meat ratio [2, 14]: 2.285
- Survival rate (%) [2, 14]: 100%
- Total feed consumption [2, 14]: 252.27 kg
- Total weight gain [2, 14]: 110.4 kg
- Relative weight gain rate (%) [2, 14]: 101.28%
